Experiment [1] in a line: decrease of PhoP-driven GFP reporter signal, S. Typhimurium, dose response, PhoP regulon inhibitor project, purified and synthesized compounds, set 2 (AID 2831). The following applies: S. Typhimurium PhoP-regulated promoter-GFP reporter, fluorescence, 4 h; at 150 µM (top of the series).
Experiment [2] relates to S. Typhimurium PhoP-regulated promoter-GFP reporter, fluorescence, 4 h. The description is as above.

SMILES strings stand for the structures. Active and inactive are the calls of the source.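 The calls were made as follows: active = inhibition over 29.93%, a cutoff 3 SD above the screen mean, later confirmed by dose response; inconclusive = over the cutoff but never tested in dose response; inactive = the rest.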 A value given as a limit tells only on which side of the number the result lay.

Take `CCn1cc(C(=O)O)c(=O)c2cc(F)c(N3CCN(C(=S)NCc4ccccc4)CC3)cc21`: the inhibition in experiment [1] was -0.39% (inactive).
On the same count and under the same terms, in the case of `Fc1ccccc1NC(=S)NCc1ccc(Cl)cc1` it was -10.3% (inactive).
On to `O=C1C2=C(Nc3ccccc3SC2c2ccccc2Cl)c2ccccc21` (stereo unspecified), for which the IC50 in experiment [2] is 141 µM.
For the molecule `COc1cccc(NC(=S)NCc2ccc(Cl)cc2)c1`, the inhibition in experiment [1] is 2.44% (inactive).
Take `O=C1C2=C(Nc3ccccc3SC2c2ccc(I)cc2)c2ccccc21` (stereo unspecified): in experiment [2], the IC50 is 133 µM.
The same measure, in the same setting: in the case of `S=C(NCc1ccc(Cl)cc1)Nc1ccncc1` it was 76.6 µM.
In the case of `S=C(NCc1ccc(Cl)cc1)Nc1cccnc1`, the inhibition in experiment [1] is -84.8% (inactive).
In the case of `CN1CCc2nc(SCC(=O)Nc3cccc(F)c3)c(C#N)c(-c3cccs3)c2C1`, the IC50 in experiment [2] is less than 0.15 µM.
On the same count and under the same terms, in the case of `O=c1c2ccccc2[nH]c2ccc(F)cc12` it was less than 0.15 µM; in that of `CCOc1ccc(NC(=S)N2CCN(c3cc4c(cc3F)c(=O)c(C(=O)O)cn4CC)CC2)cc1`, 2.03 µM.
The same measure, in the same setting: in the case of `S=C(NCc1ccccc1Cl)Nc1ccncc1` it was 146 µM; in that of `CCCCn1c(NS(=O)(=O)c2ccccc2)c(S(=O)(=O)c2ccc(C)cc2)c2nc3ccccc3nc21`, less than 0.15 µM; in that of `O=C(Nc1cccnc1)c1cc(Br)c(Br)s1`, less than 0.15 µM.
As for `O=C(NCc1ccccc1)N1CCCN(Cc2ccccc2F)C1`, the inhibition in experiment [1] is -78.3% (inactive).
Still for that read-out and setting: next, `CCn1cc(C(=O)O)c(=O)c2cc(F)c(N3CCN(C(=S)Nc4ccc(Cl)cc4)CC3)cc21`: -15% (inactive).
With `CCn1cc(C(=O)O)c(=O)c2cc(F)c(N3CCN(C(=S)NC(=O)c4ccccc4F)CC3)cc21`, the IC50 in experiment [2] is 106 µM.
Take `C1=C(CCNc2ncnc3c2[nH]c2ccccc23)CCCC1`: the IC50 in experiment [2] is less than 0.15 µM.
Consider `COc1ccccc1NC(=O)N1CCCN(Cc2ccccc2F)C1`, for which, in experiment [1], the inhibition was 13.8% (inactive).
As to `S=C(NCc1ccc(Cl)cc1)Nc1cccc(Cl)c1`, in experiment [2], the half-inhibitory concentration (IC50) is 58.8 µM.
Consider `Cc1ccc(Nc2cc(C)c3c(O)cccc3n2)cc1C`, for which the IC50 in experiment [2] was 112 µM.
Take `CCn1cc(C(=O)O)c(=O)c2cc(F)c(N3CCN(C(=S)NC)CC3)cc21`: the inhibition in experiment [1] is -22.9% (inactive).
Regarding `O=C(O)c1cn(-c2ccc(F)cc2)c2cc(Cl)c(F)cc2c1=O`, the IC50 in experiment [2] was less than 0.15 µM.
Regarding `S=C(NCc1ccc(Cl)cc1)Nc1ccc(Br)cc1`, the inhibition in experiment [1] is -3.88% (inactive).
As for `O=C1c2ccccc2C2=Nc3ccccc3SC(c3ccccc3F)C12` (stereo unspecified), in experiment [2], the IC50 was less than 0.15 µM.
Regarding `O=C1C2=C(Nc3ccccc3SC2c2ccsc2)c2ccccc21` (stereo unspecified), the inhibition in experiment [1] is 7.75% (inactive).
With `O=S(=O)(Nc1c(S(=O)(=O)c2ccccc2)c2nc3ccccc3nc2n1C1CCCCC1)c1ccccc1`, the IC50 in experiment [2] is less than 0.15 µM.
The same measure, in the same setting: next, `CCn1cc(C(=O)O)c(=O)c2cc(F)c(N3CCN(C(=S)Nc4ccccc4C(F)(F)F)CC3)cc21`: 3.79 µM.
On the same count and under the same terms, in the case of `CCCCn1c(NS(=O)(=O)c2ccc(C)cc2)c(S(=O)(=O)c2ccccc2)c2nc3ccccc3nc21` it was less than 0.15 µM.
With `O=C(Nc1ccccc1)N1CCCN(Cc2ccccc2F)C1`, in experiment [1], the inhibition was -140% (inactive).
On to `COc1ccc(NC(=S)NCc2ccc(Cl)cc2)cc1`, for which, in experiment [1], the inhibition is 1.77% (inactive).
Same read-out and setting: next, `Cc1ccc(CN2CCCN(C(=O)Nc3ccc(Cl)cc3)C2)cc1`: 17.3% (inactive).
Consider `COc1ccc(NC(=O)c2cc(Br)c(Br)s2)cn1`, for which the IC50 in experiment [2] was less than 0.15 µM.
Turning to `Cc1cccc(NC(=S)NCc2ccc(Cl)cc2)c1`, in experiment [1], the inhibition is 18.9% (inactive).
As to `Cc1ccc(NC(=S)NCc2ccc(Cl)cc2)cc1`, the inhibition in experiment [1] was 26.1% (inactive).
Consider `O=C1C2=C(Nc3ccccc3SC2c2ccccc2Br)c2ccccc21` (stereo unspecified), for which the IC50 in experiment [2] is 88.3 µM.
As for `O=C(Nc1ccccc1)N1CCCN(Cc2ccc(F)cc2)C1`, in experiment [1], the inhibition is -3.43% (inactive).
In the case of `CCn1cc(C(=O)O)c(=O)c2cc(F)c(N3CCN(C(=S)Nc4ccccc4Cl)CC3)cc21`, in experiment [2], the IC50 was 46.5 µM.
Take `O=C(Nc1ccc(Cl)cc1)N1CCCN(Cc2ccc(F)cc2)C1`: the inhibition in experiment [1] is -86.3% (inactive).
For `COc1ccccc1Nc1nc(NCc2ccco2)c2ccccc2n1`, the IC50 in experiment [2] was less than 0.15 µM.
Consider `COc1cccc(C2Sc3ccccc3NC3=C2C(=O)c2ccccc23)c1` (stereo unspecified), for which, in experiment [2], the IC50 is 76.8 µM.
As to `CCCCCNC(=O)c1cn(CC)c2cc(N3CCN(C)CC3)c(F)cc2c1=O`, the IC50 in experiment [2] was less than 0.15 µM.
As to `O=C1C2=C(Nc3ccccc3SC2c2ccc(C(F)(F)F)cc2)c2ccccc21` (stereo unspecified), the inhibition in experiment [1] is -14.5% (inactive).
On the same count and under the same terms, next, `O=C1C2=C(Nc3ccccc3SC2c2ccccc2C(F)(F)F)c2ccccc21` (stereo unspecified): -23.8% (inactive).
In the case of `O=[N+]([O-])c1ccc(CNC2CCCc3ccccc32)cc1` (stereo unspecified), in experiment [2], the IC50 is 69.1 µM.
For `O=C(Nc1ccc(Br)cc1)N1CCCN(Cc2ccccc2F)C1`, the inhibition in experiment [1] is -62.1% (inactive).
With `CCn1cc(C(=O)O)c(=O)c2cc(F)c(N3CCN(C(=S)Nc4ccccc4C)CC3)cc21`, the IC50 in experiment [2] was 27.9 µM.
The same measure, in the same setting: next, `CN(C)CCCN(C(=O)CCc1ccccc1)c1nc2ccc(Cl)cc2s1`: less than 0.15 µM; `CCn1cc(C(=O)O)c(=O)c2cc(F)c(N3CCN(C(=S)NC(=O)c4ccccc4Cl)CC3)cc21`: 42.6 µM.
The same measure, in the same setting: next, `COc1c(N2CCN(C(=S)NCc3ccccc3)C(C)C2)c(F)cc2c(=O)c(C(=O)O)cn(C3CC3)c12` (stereo unspecified): 85.5 µM; `N#C/C(=C\c1ccc[nH]1)C(=O)NC1CC1`: less than 0.15 µM.
Consider `O=C(Nc1ccccc1Cl)N1CCCN(Cc2ccccc2F)C1`, for which the inhibition in experiment [1] is -64.3% (inactive).

The inhibition is the change of the read-out against control, counted positive when it falls. As a reminder, the IC50 is the concentration at which inhibition is half-maximal.

These data come from PubChem BioAssay AID2831 (Southern Research Specialized Biocontainment Screening …, 2010).
